Laboratory results: the NIST ThermoML archive (doi:10.1021/je100068y)
“And” between values parts separate entries of the source, which are not always exact repeats. Identical values can stand only once. ± gives the expanded uncertainty stated by the source.

Legend:
[1] = mn = molality of the nth substance listed, in mol/kg; conditions: 101.33 kPa, Liquid, m1 = 0.05
[2] = cn = amount concentration of the nth substance listed, in mol/dm3; conditions: 101.33 kPa, Liquid, Alternating current cell with electrodes

CCCCCCCCCCCCOS(=O)(=O)[O-].[Na+] [sodium dodecyl sulfate] + O
[1]
Conditions	mass density
298.15 K	999.198 ± 0.14 kg/m3 and 999.155 ± 0.23 kg/m3
303.15 K	997.657 ± 0.14 kg/m3 and 997.661 ± 0.23 kg/m3
308.15 K	995.989 ± 0.14 kg/m3 and 995.962 ± 0.24 kg/m3
313.15 K	994.178 ± 0.14 kg/m3 and 994.186 ± 0.24 kg/m3

electrical conductivity [S/m], [2]
Conditions	288.15 K	293.15 K	298.15 K	303.15 K	308.15 K
c1 = 0.003022	0.0165 ± 0.00027	0.0184 ± 0.00031	0.0207 ± 0.00034	0.0234 ± 0.00038	0.0258 ± 0.00042
c1 = 0.004552	0.0247 ± 0.00033	0.0279 ± 0.00037	0.0313 ± 0.00042	0.0349 ± 0.00046	0.0386 ± 0.00051
c1 = 0.005661	0.0304 ± 0.00037	0.0344 ± 0.00042	0.0388 ± 0.00047	0.0431 ± 0.00052	0.0477 ± 0.00058
c1 = 0.006744	0.0361 ± 0.00042	0.0408 ± 0.00047	0.0458 ± 0.00053	0.051 ± 0.00059	0.0564 ± 0.00065
c1 = 0.007679	0.0408 ± 0.00044	0.0461 ± 0.0005	0.0517 ± 0.00056	0.0577 ± 0.00063	0.0638 ± 0.0007
c1 = 0.008765	0.0447 ± 0.00047	0.0502 ± 0.00052	0.0565 ± 0.00059	0.0632 ± 0.00065	0.0704 ± 0.00073
c1 = 0.009933	0.0474 ± 0.00048	0.0532 ± 0.00054	0.06 ± 0.00061	0.0671 ± 0.00069	0.0751 ± 0.00077
c1 = 0.0111	0.0497 ± 0.00051	0.0559 ± 0.00057	0.0632 ± 0.00064	0.0708 ± 0.00072	0.0793 ± 0.00081
c1 = 0.01221	0.0518 ± 0.00053	0.0584 ± 0.00059	0.0661 ± 0.00067	0.074 ± 0.00075	0.083 ± 0.00084
c1 = 0.01335	0.0538 ± 0.00055	0.0609 ± 0.00062	0.0688 ± 0.0007	0.0774 ± 0.00079	0.0869 ± 0.00088
c1 = 0.01444	0.0558 ± 0.00057	0.0632 ± 0.00064	0.0715 ± 0.00072	0.0805 ± 0.00082	0.0904 ± 0.00092
c1 = 0.0156	0.058 ± 0.00059	0.0657 ± 0.00067	0.0745 ± 0.00076	0.084 ± 0.00085	0.0944 ± 0.00096
c1 = 0.01674	0.0601 ± 0.00061	0.0683 ± 0.00069	0.0775 ± 0.00079	0.0873 ± 0.00089	0.098 ± 0.00099
